Results reported in US10703756B2, “Pyrrolo[2,3-D]pyrimidinyl, pyrrolo[2,3-B]pyrazinyl, pyrrolo[2,3-B]pyridinyl acrylamides and epoxides thereof” (Pfizer Inc., priority 2015, dated 2020).

Experiments:
JAK3 enzyme [1] = molecular target: T1, JAK3 enzyme (Homo sapiens, UniProt P52333); experiment: JAK Caliper Enzyme Assay at 4 μM ATP; format: biochemical
T1 sequence (P52333 1-1124): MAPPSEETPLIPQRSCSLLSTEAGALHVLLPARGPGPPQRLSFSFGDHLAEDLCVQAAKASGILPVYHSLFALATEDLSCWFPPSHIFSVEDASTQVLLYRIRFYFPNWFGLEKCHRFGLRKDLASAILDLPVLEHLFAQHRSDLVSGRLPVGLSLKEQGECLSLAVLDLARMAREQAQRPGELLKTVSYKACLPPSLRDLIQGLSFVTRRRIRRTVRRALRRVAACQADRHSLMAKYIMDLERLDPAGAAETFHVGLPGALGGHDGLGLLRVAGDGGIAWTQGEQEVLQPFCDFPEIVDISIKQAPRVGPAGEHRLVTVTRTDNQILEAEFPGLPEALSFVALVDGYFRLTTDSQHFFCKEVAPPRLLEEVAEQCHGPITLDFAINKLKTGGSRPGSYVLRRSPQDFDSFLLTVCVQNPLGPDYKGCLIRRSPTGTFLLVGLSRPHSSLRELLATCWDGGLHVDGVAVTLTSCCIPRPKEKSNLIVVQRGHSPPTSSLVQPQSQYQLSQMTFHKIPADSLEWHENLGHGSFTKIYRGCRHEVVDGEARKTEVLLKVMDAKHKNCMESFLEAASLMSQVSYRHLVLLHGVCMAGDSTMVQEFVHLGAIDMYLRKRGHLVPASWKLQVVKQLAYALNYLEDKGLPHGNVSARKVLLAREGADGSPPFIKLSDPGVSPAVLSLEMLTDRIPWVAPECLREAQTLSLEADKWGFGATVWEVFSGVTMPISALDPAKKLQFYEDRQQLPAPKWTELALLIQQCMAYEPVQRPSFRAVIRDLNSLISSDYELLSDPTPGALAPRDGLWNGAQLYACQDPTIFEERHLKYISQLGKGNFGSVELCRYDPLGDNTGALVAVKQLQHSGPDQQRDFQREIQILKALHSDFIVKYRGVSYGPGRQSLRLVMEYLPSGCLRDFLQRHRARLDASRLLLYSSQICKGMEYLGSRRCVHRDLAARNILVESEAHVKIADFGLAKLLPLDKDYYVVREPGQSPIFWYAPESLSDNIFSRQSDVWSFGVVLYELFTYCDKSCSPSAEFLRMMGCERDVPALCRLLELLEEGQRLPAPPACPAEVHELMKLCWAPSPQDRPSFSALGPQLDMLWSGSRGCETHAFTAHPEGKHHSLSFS
In short: (§1)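 Test compounds were diluted in DMSO as an 11-point half-log series from a 600 μM top concentration (DMSO series, not final assay level). Enzyme amount and incubation time were set per enzyme prep to reach 20%-30% phosphorylation. Phosphorylated and unphosphorylated peptide were resolved by microfluidic separation.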

JAK3 enzyme [2] = molecular target: T1, JAK3 enzyme; experiment: JAK Caliper Enzyme Assay at 1 mM ATP; format: biochemical
In short: as §1

| Structure (SMILES) | IC50 (JAK3 enzyme [1]) [nM] | IC50 (JAK3 enzyme [2]) [nM] |
| --- | --- | --- |
| C=CC(=O)N1CCC(Oc2cnc3[nH]cc(C(=O)NCC4(O)CCCC[C@@H]4F)c3n2)CC1 (mixture of isomers) [Example 224, Racemic-2-[(1-acryloylpiperidin-4-yl)oxy]-N-{[(2S)-2-fluoro-1-hydroxycyclohexyl]methyl}-5H-pyrrolo[2,3-b]pyrazine-7-carboxamide] | 3.54 | 526 |
| C=CC(=O)N1CCN(c2cnc3[nH]cc(C(=O)N[C@@H](c4ccccc4)C(C)(C)O)c3n2)CC1(C)C [Example 162, 2-(4-acryloyl-3,3-dimethylpiperazin-1-yl)-N-[(1S)-2-hydroxy-2-methyl-1-phenylpropyl]-5H-pyrrolo[2,3-b]pyrazine-7-carboxamide] | 6.19 | 581 |
| C=CC(=O)N1CCC(Nc2cnc3[nH]cc(S(=O)(=O)NC(C)C)c3n2)CC1 [Example 127, 2-[(1-Acryloylpiperidin-4-yl)amino]-N-(propan-2-yl)-5H-pyrrolo[2,3-b]pyrazine-7-sulfonamide] | 9.43 | 1080 |
| C=CC(=O)N1C[C@H](C)[C@H](Nc2cnc3[nH]cc(C(=O)NCC)c3n2)C1 (stereo in doubt) [Example 260, 2-[(1-acryloyl-4-methylpyrrolidin-3-yl)amino]-N-ethyl-5H-pyrrolo[2,3-b]pyrazine-7-carboxamide] | 2.14 | 676 |
| C=CC(=O)N1CC[C@@H](CNc2cnc3[nH]cc(C(=O)N[C@H](C)COC)c3n2)C1 (single isomer, unassigned) [Example 20] | 5.42 | 926 |
| C=CC(=O)N1CCN(c2cnc3[nH]cc(C(=O)NC4CC(F)(F)C4)c3n2)CC1(C)C [Example 325, 2-(4-acryloyl-3,3-dimethylpiperazin-1-yl)-N-(3,3-difluorocyclobutyl)-5H-pyrrolo[2,3-b]pyrazine-7-carboxamide] | 12.8 | 1260 |
| C=CC(=O)N1CC[C@H](CNc2cnc3[nH]cc(C(=O)N[C@H](C)COC)c3n2)C1 (single isomer, unassigned) [Example 21] | 4.69 | 633 |
| C=CC(=O)N1CC(Nc2cnc3[nH]cc(C(=O)NCC(C)C)c3n2)C2(CC2)C1 (stereo not shown) [Example 236, 2-[(5-acryloyl-5-azaspiro[2.4]hept-7-yl)amino]-N-(2-methylpropyl)-5H-pyrrolo[2,3-b]pyrazine-7-carboxamide] | 45.1 | 6550 |
| C=CC(=O)N1CCN(c2cnc3[nH]cc(C(=O)N[C@@H](CO)Cc4cccc(C#N)c4)c3n2)CC1(C)C [Example 157, 2-(4-acryloyl-3,3-dimethylpiperazin-1-yl)-N-[(2R)-1-(3-cyanophenyl)-3-hydroxypropan-2-yl]-5H-pyrrolo[2,3-b]pyrazine-7-carboxamide] | 20.6 | 2900 |
| C=CC(=O)N1CCC(Nc2cnc3[nH]cc(C(=O)NCCC(F)(F)F)c3n2)CC1C (racemic) [Example 22, Cis-racemic 2-{[1-acryloyl-2-methylpiperidin-4-yl]amino}-N-(3,3,3-trifluoropropyl)-5H-pyrrolo[2,3-b]pyrazine-7-carboxamide] | 1.29 | 134 |
| C=CC(=O)N1CCC(N(C)c2cnc3[nH]cc(C(=O)N4CCC4)c3n2)CC1 [Example 62, 1-(4-{[7-(azetidin-1-ylcarbonyl)-5H-pyrrolo[2,3-b]pyrazin-2-yl](methyl)amino}piperidin-1-yl)prop-2-en-1-one] | 13.5 | 2700 |
| C=CC(=O)N1CCC(Oc2cnc3[nH]cc(-c4ncnn4C)c3n2)CC1 [Example 122, 1-(4-{[7-(1-Methyl-1H-1,2,4-triazol-5-yl)-5H-pyrrolo[2,3-b]pyrazin-2-yl}oxy)piperidin-1-yl]prop-2-en-1-one] | 8.97 | 1470 |
| C=CC(=O)N1CCC(Oc2cnc3[nH]cc(-c4n[nH]c(C(C)C)n4)c3n2)CC1 [Example 116, 1-[4-({7-[5-(Propan-2-yl)-1H-1,2,4-triazol-3-yl]-5H-pyrrolo[2,3-b]pyrazin-2-yl}oxy)piperidin-1-yl]prop-2-en-1-one] | 14.7 | 2550 |
| C=CC(=O)N1CCC(Oc2cnc3[nH]cc(C(=O)NCC(C)(C)C)c3n2)CC1 [Example 221, 2-[(1-acryloylpiperidin-4-yl)oxy]-N-(2,2-dimethylpropyl)-5H-pyrrolo[2,3-b]pyrazine-7-carboxamide] | 4.4 | 713 |
| C=CC(=O)N1CCN(c2cnc3[nH]cc(C(=O)NC(C)(C)COC)c3n2)CC1(C)C [Example 151, 2-(4-acryloyl-3,3-dimethylpiperazin-1-yl)-N-(1-methoxy-2-methylpropan-2-yl)-5H-pyrrolo[2,3-b]pyrazine-7-carboxamide] | 13.6 | 1520 |
| C=CC(=O)N1C[C@H](Nc2ncnc3[nH]ccc23)CC[C@H]1[C@@H](C)O (single isomer, unassigned) [Example 110] | 867 | > 10000 |
| C=CC(=O)N1CC[C@@H](Nc2cnc3[nH]cc(C(=O)N[C@@H](C)COC)c3n2)[C@@H](OC)C1 (single isomer, unassigned) [Example 355] | 0.327 | 30 |
